From ChEMBL document CHEMBL4813973, “Discovery of novel N-benzylbenzamide derivatives as tubulin polymerization inhibitors with potent antitumor activities” (Eur J Med Chem, 2021)
pIC50: −log10 of the molar value. Values after ≈ are worked out from the molar mass of the structure shown. Active and inactive are the calls of the source. The rule behind the calls is not given here.

Legend:
[1] = Aqueous solubility of the compound in aqueous HCl at pH 2 by HPLC-UV analysis; assay type: physicochemical
A-431 [2] = test: Induction of cell cycle arrest in human A-431 cells assessed as accumulation at S phase at 30 nM after 48 hrs by propidium iodide staining based flow cytometry (reference value: 46.57%); assay type: functional
A-431 [3] = test: Induction of apoptosis in human A-431 cells assessed as late apoptotic cells at 30 nM after 48 hrs by Annexin-V-APC/PI-staining based flow cytometric analysis (reference value: 2.02%); assay type: functional
A-431 [4] = test: Anti-microtubule activity in human A-431 cells assessed as loss of cellular structure at 7.5 to 30 nM incubated for 24 hrs by DAPI staining based confocal microscopic analysis; assay type: functional, cell-based; details: dose 7.5-30 nM
[5] = Metabolic stability in rat plasma assessed as parent compound remaining at 100 nM measured after 3 hrs by HPLC analysis; assay type: ADME, cell-free; details: read-out: Stabilty
A-431 [6] = test: Induction of apoptosis in human A-431 cells assessed as necrotic cells at 7.5 nM after 48 hrs by Annexin-V-APC/PI-staining based flow cytometric analysis (reference value: 3.79%); assay type: functional
H22 [7] = test: Antitumor activity against […] xenografted in ICR mouse assessed as reduction of tumor weight at 10 mg/kg/day, iv for 21 days; assay type: functional; details: 504 h, time 21 day
A-431 [8] = test: Induction of apoptosis in human A-431 cells assessed as downregulation of Bcl2 protein expression by western blot analysis; assay type: functional, cell-based; details: dose 7.5-30 nM
[9] = Induction of mitochondria membrane potential loss in human A-431 cells assessed as red fluorescence intensity at 7.5 nM incubated 48 hrs by JC-1 probe based flow cytometry analysis (reference value: 93.83%); assay type: functional
A-431 [10] = test: Induction of apoptosis in human A-431 cells assessed as late apoptotic cells at 7.5 nM after 48 hrs by Annexin-V-APC/PI-staining based flow cytometric analysis (reference value: 2.02%); assay type: functional
A-431 [11] = test: Cell cycle arrest in human A-431 cells assessed as downregulation of cdc2 expression by Western blot analysis; assay type: functional, cell-based; details: dose 7.5-30 nM
A-431 [12] = test: Induction of apoptosis in human A-431 cells assessed as necrotic cells at 15 nM after 48 hrs by Annexin-V-APC/PI-staining based flow cytometric analysis (reference value: 3.79%); assay type: functional
A-431 [13] = test: Induction of cell cycle arrest in human A-431 cells assessed as accumulation at G1 phase at 15 nM after 48 hrs by propidium iodide staining based flow cytometry (reference value: 41.16%); assay type: functional
[14] = Inhibition of pig brain tubulin polymerisation incubated for 30 mins and measured every 2 mins for 60 mins by spectrophotometric method; assay type: tissue-based, Sus scrofa
A-431 [15] = test: Induction of apoptosis in human A-431 cells assessed as activation of caspase 9 at 7.5 to 30 nM by western blot analysis; assay type: functional, cell-based; details: dose 7.5-30 nM
H22 [16] = test: Antivascular activity against […] xenografted in ICR mouse assessed as reduction in tumor microvessel density at 20 mg/kg/day, iv administered for 21 days by immunohistochemical staining based analysis; assay type: functional, organism-based; details: time 21.0 day
A-431 [17] = test: Induction of apoptosis in human A-431 cells assessed as activation of caspase 3 by western blot analysis; assay type: functional, cell-based; details: dose 7.5-30 nM
Sus scrofa [18] = species on record: Sus scrofa; test: Inhibition of [3H]colchicine binding to biotinylated pig brain tubulin at 5 uM incubated for 2 hrs in presence of GTP by competitive scintillation proximity assay; assay type: tissue-based
A-431 [19] = test: Induction of apoptosis in human A-431 cells assessed as necrotic cells at 30 nM after 48 hrs by Annexin-V-APC/PI-staining based flow cytometric analysis (reference value: 3.79%); assay type: functional
A-431 [20] = test: Induction of apoptosis in human A-431 cells assessed as early apoptotic cells at 15 nM after 48 hrs by Annexin-V-APC/PI-staining based flow cytometric analysis (reference value: 0.82%); assay type: functional
L02 = test: Cytotoxicity against human L02 cells assessed as reduction in cell viability incubated for 72 hrs by MTT assay; assay type: cell-based; details: L02, 72 h
[21] = Induction of mitochondria membrane potential loss in human A-431 cells assessed as green fluorescence intensity at 30 nM incubated for 48 hrs by JC-1 probe based flow cytometry analysis (reference value: 5.98%); assay type: functional
MDA-MB-231 = test: Antiproliferative activity against human MDA-MB-231 cells assessed as reduction in cell viability incubated for 72 hrs by MTT assay; assay type: functional, cell-based; details: MDA-MB-231, 72 h
A-431 [22] = test: Cell cycle arrest in human A-431 cells assessed as downregulation of CyclinB1 expression by Western blot analysis; assay type: functional, cell-based; details: dose 7.5-30 nM
A-431 [23] = test: Induction of apoptosis in human A-431 cells assessed as chromatin condensation at 7.5 to 30 nM incubated for 48 hrs by Hoechst33342 staining based fluorescent microscopy; assay type: functional, cell-based; details: dose 7.5-30 nM
A-431 [24] = test: Induction of apoptosis in human A-431 cells assessed as activation of p53 at 7.5 to 30 nM by western blot analysis; assay type: functional, cell-based; details: dose 7.5-30 nM
A-431 [25] = test: Induction of apoptosis in human A-431 cells assessed as increase in cleaved PARP expression at 7.5 to 30 nM by western blot analysis; assay type: functional, cell-based; details: dose 7.5-30 nM
[26] = Induction of mitochondria membrane potential loss in human A-431 cells assessed as green fluorescence intensity at 7.5 nM incubated 48 hrs by JC-1 probe based flow cytometry analysis (reference value: 5.98%); assay type: functional
A-431 [27] = test: Induction of ROS generation in human A-431 cells at 30 nM incubated for 48 hrs by DCFH-DA dye based fluorescence microscopy (reference value: 6.17%); assay type: functional
A-431 [28] = test: Induction of cell cycle arrest in human A-431 cells assessed as accumulation at G2 phase at 15 nM after 48 hrs by propidium iodide staining based flow cytometry (reference value: 7.27%); assay type: functional
A-431 [29] = test: Cell cycle arrest in human A-431 cells assessed as downregulation of p-histone H3 expression by Western blot analysis; assay type: functional, cell-based; details: dose 7.5-30 nM
A-431 [30] = test: Induction of ROS generation in human A-431 cells incubated for 48 hrs by DCFH-DA dye based flow cytometry; details: dose 7.5-30 nM
H22 [31] = test: Antitumor activity against […] xenografted in ICR mouse assessed as reduction of tumor weight at 20 mg/kg/day, iv for 21 days; assay type: functional; details: 504 h, time 21 day
Sus scrofa [32] = species on record: Sus scrofa; test: Inhibition of [3H]colchicine binding to biotinylated pig brain tubulin at 1 uM incubated for 2 hrs in presence of GTP by competitive scintillation proximity assay; assay type: tissue-based
A-431 [33] = test: Induction of apoptosis in human A-431 cells assessed as upregulation of Bax protein expression by western blot analysis; assay type: functional, cell-based; details: dose 7.5-30 nM
Bel-7402 [34] = test: Antiproliferative activity against ADR-resistant human Bel-7402 cells assessed as reduction in cell viability incubated for 72 hrs by MTT assay; assay type: functional, cell-based; details: Homo sapiens, Bel-7402, 72 h; read-out: IC50
[35] = n-Octanol/water partition coefficient, logD of the compound incubated for 24 hrs at pH 7.4 by HPLC analysis; assay type: physicochemical
A-431 [36] = test: Induction of apoptosis in human A-431 cells assessed as late apoptotic cells at 15 nM after 48 hrs by Annexin-V-APC/PI-staining based flow cytometric analysis (reference value: 2.02%); assay type: functional
Bel-7402 [37] = test: Antiproliferative activity against human Bel-7402 cells assessed as reduction in cell viability incubated for 72 hrs by MTT assay; assay type: functional, cell-based; details: Homo sapiens, Bel-7402, 72 h; read-out: IC50

COc1ccc(CNC(=O)c2cc(F)ccc2N2CCOCC2)cc1O
solubility [1]: 323 µg/mL (≈ 897 µM)
Activity (A-431 [2]): 18.54%
Activity (A-431 [3]): 32.12%
Activity (A-431 [4]): Active
remaining at 3 h, 0.1 µM [5]: 91.5%
Activity (A-431 [6]): 8.23%
inhibition in vivo at 10 mg/kg/day (H22 [7]): 50.3%
Activity (A-431 [8]): Dose-Dependent Effect
Activity [9]: 73.18%
Activity (A-431 [10]): 9.21%
Activity (A-431 [11]): Dose-Dependent Effect
Activity (A-431 [12]): 9.79%
Activity (A-431 [13]): 61.16%
pIC50 [14]: 5.52
Activity (A-431 [15]): Active
Activity (H22 [16]): Active
Activity (A-431 [17]): Dose-Dependent Effect
inhibition (Sus scrofa [18]): 82.9%
Activity (A-431 [19]): 7.35%
Activity (A-431 [20]): 18.35%
pIC50 (L02): 6.95
Activity [21]: 65.96%
pIC50 (MDA-MB-231): 7.57
Activity (A-431 [22]): Dose-Dependent Effect
Activity (A-431 [23]): Active
Activity (A-431 [24]): Active
Activity (A-431 [25]): Active
Activity [26]: 26.73%
Activity (A-431 [27]): 21.99%
Activity (A-431 [28]): 16.25%
Activity (A-431 [29]): Dose-Dependent Effect
Activity (A-431 [30]): Dose-Dependent Effect
inhibition in vivo at 20 mg/kg/day (H22 [31]): 66%
inhibition (Sus scrofa [32]): 56.9%
Activity (A-431 [33]): Dose-Dependent Effect
pIC50 (Bel-7402 [34]): 6.98
logD at 24 h [35]: 1.61
Activity (A-431 [36]): 26.43%
pIC50 (Bel-7402 [37]): 7.57
